According to patent publication US10851069B2, “Compositions of crystallized hydrophobic compounds and methods of making and using same” (Massachusetts Institute of Technology, priority 2016, dated 2020):

Assays:
C57BL/6 mice [1] = assay: Anti-fibrotic screening of amorphous drug formulations in 500 μm alginate capsules, 2-week intraperitoneal implantation; type: in vivo; details: conclusion; alginate hydrogel, ceramic, glass, PDMS and polystyrene beads
Text: For screening of anti-fibrotic drug activity, amorphous drug formulations were encapsulated inside 500 μm alginate capsules. Broad-spectrum anti-inflammatory agents curcumin, dexamethasone, and rapamycin have been used for preventing fibrosis of various biomaterials, such as polymer PLGA and hydrogel alginate. A panel of lead drug candidates (e.g., compounds of Formulae I-X) including the traditional broad-spectrum anti-inflammatories as well as agents targeted to essential macrophage biology pathways (e.g., TNFα, NFκB, p110δ/PI3K, TGFβ, and CSF1R) were selected. […] SLG20 alginate hydrogel spheres with these lead drug candidates were prepared as amorphous formulations to investigate the effect of macrophage immunomodulation on foreign body response. Drugs were encapsulated in amorphous form prepared by first dissolving in an organic solvent (e.g., vehicle in FIGS. 7, 9) then by mixing with alginate aqueous solution. Efficacy in preventing fibrosis was assessed in C57BL/6 mice at 2-weeks post implantation into the intraperitoneal (IP) cavity. Drug-containing spheres (500 μl/animal) were then implanted into the intraperitoneal space of C57BL/6 mice for 14 days. After this period, spheres were harvested and studied for cellular deposition and fibrosis.
All animal protocols were approved by the MIT Committee on Animal Care, and all surgical procedures and post-operative care was supervised by MIT Division of Comparative Medicine veterinary staff. Immune-competent male non-diabetic or STZ-induced diabetic C57BL/6 mice (Jackson Laboratory, Bar Harbor, Me.) were anesthetized with 3% isoflurane in oxygen and had their abdomens shaved and sterilized using betadine and isopropanol. Preoperatively, all mice also received a 0.05 mg/kg dose of buprenorphine subcutaneously as a pre-surgical analgesic, along with 0.3 mL of 0.9% saline subcutaneously to prevent dehydration. A […] incision was made along the midline of the abdomen and the peritoneal lining was exposed using blunt dissection. […]

C57BL/6 mice [2] = assay: PDMS discs loaded with GW2580 crystals implanted SC and IP; type: in vivo
Experimental: Another study was done by mixing GW2580 crystals at different ratios of 1, 5 and 10% w/w with PDMS to form disks of 2.2 mm thickness and 5 mm diameter prepared at ratio 9:1 (PDMS: curing reagent) and were solidified overnight at 45° C. These disks were implanted into SC and IP spaces in C57BL/6 mice and then retrieved and analyzed at 2 weeks, 4 weeks, and 3 months post implantation in C57BL/6 mice (1 disc/site/mouse). […] Retrieved materials where fixed overnight using 4% paraformaldehyde at 4° C. After fixation, alginate sphere or retrieved tissue samples were washed using 70% alcohol. The materials where then mixed with 4 degrees calcium-cooled Histogel (VWR, CA #60872-486). After the molds hardened, the blocks were processed for paraffin embedding, sectioning and staining according to standard histological methods. Single-cell suspensions of freshly excised tissues were prepared using a gentle MACS Dissociator (Miltenyi Biotec, Auburn, Calif.) according to the manufacturer's protocol. Single-cell suspensions were prepared in a passive PEB dissociation buffer (1×PBS, pH 7.2, 0.5% BSA, and 2 mM EDTA) and suspensions were passed through 70 μm filters (Cat. #22363548, Fisher Scientific, Pittsburgh, Pa.). This process removed the majority of cells adhered to the surface (>90%). All tissue and material sample-derived, single-cell populations were then subjected to red blood cell lysis with 5 ml of 1×RBC lysis buffer (Cat. #00-4333, eBioscience, San Diego, Calif., USA) for 5 min at 4° C. The reaction was terminated by the addition of 20 ml of sterile 1×PBS. The cells remaining were centrifuged at 300-400 g at 4° C. and resuspended in a minimal volume (˜50 μl) of eBioscience Staining Buffer (cat. #00-4222) for antibody incubation. All samples were then co-stained in the dark for 25 min at 4° C. with two of the fluorescently tagged monoclonal antibodies specific for the cell markers CD68 (1 μl (0.5 μg) per sample; CD68-Alexa647, Clone FA-11, Cat. #11-5931, BioLegend), Ly-6G (Gr-1) (1 μl (0.5 μg) per sample; Ly-6G-Alexa-647, Clone RB6-8C5, Cat. #108418, BioLegend), CD11b (1 μl (0.2 μg) per sample; or CD11b-Alexa-488, Clone M1/70, Cat. #101217, BioLegend). For alpha smooth muscle actin (fibrosis) analysis, additional cell aliquots were also fixed in 1% paraformaldehyde and permeabilized with 0.1% triton X-100 before being stained with Cy3-conjugated anti-mouse αSM actin antibody (1:100) (Sigma Aldrich, St. Louis, Mo.). Two ml of eBioscience Flow Cytometry Staining Buffer (cat. #00-4222, eBioscience) was then added, and the samples were centrifuged at 400-500 g for 5 min at 4° C. Supernatants were removed by aspiration, and this wash step was repeated two more times with staining buffer. Following the third wash, each sample was resuspended in 500 μl of Flow Cytometry Staining Buffer and run through a 40 μm filter (Cat. #22363547, Fisher Scientific) for eventual FACS analysis using a BD FACSCalibur (cat. #342975), BD Biosciences, San Jose, Calif., USA). For proper background and laser intensity settings, unstained, single antibody, and IgG (labeled with either Alexa-488 or Alexa-647, BioLegend) controls were also run. For primate cell staining, anti-human CD68 Alexa Fluor-647-conjugated antibody (Clone KP1, Cat. #sc-20060, Santa Cruz, Dallas, Tex.) was used in conjunction with the above BioLegend (anti-mouse/human) CD11b-AF488 antibody.

SMILES: COc1ccc(COc2ccc(Cc3cnc(N)nc3N)cc2OC)cc1 [GW2580, 5-[[3-Methoxy-4-[(4-methoxyphenyl)methoxy]phenyl]methyl]-2,4-pyrimidinediamine]
- efficacy in inhibiting fibrosis of implanted biomaterial (C57BL/6 mice [1]): demonstrated efficacy in inhibiting fibrosis
- foreign body response (plaque on retrieved PDMS discs) (C57BL/6 mice [2]; 1, 5 and 10% w/w crystals, 2 and 4 weeks, 3 months): reduced in a dose-dependent fashion
- remaining drug levels (% loading, HPLC), SC versus IP (C57BL/6 mice [2]; 2 weeks, 4 weeks, 3 months): release was slower in the SC space
- responding macrophages dissociated from discs (FACS) (C57BL/6 mice [2]; all time points, IP and SC): significantly reduced cell numbers
- immune cell infiltration and fibrosis (H&E and Masson's Trichrome) (C57BL/6 mice [2]; excised SC and IP tissues, versus blank discs): significantly reduced immune cell infiltration and fibrosis
- drug retention, PDMS versus alginate (C57BL/6 mice [2]; same incubation times): drug retention was much higher in polymer PDMS
